Test results from PubChem BioAssay (NCI).
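Cells were grown in 96-well plates and exposed to each compound for 48 hours at five concentrations; endpoints were interpolated linearly between bracketing concentrations, or set to the highest concentration if not reached. At the GI50, growth is halved. Definition used: TGI = concentration required for complete inhibition of growth.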

Tests used:
Experiment in all cases: DTP human tumour cell line panel, 48 h
786-0 renal = test system: 786-0 renal
A498 renal = test system: A498 renal
A549 NSCLC = test system: A549 NSCLC
ACHN renal = test system: ACHN renal
BT-549 breast = test system: BT-549 breast
CCRF-CEM leukemia = test system: CCRF-CEM leukemia
COLO 205 colon = test system: COLO 205 colon
DU-145 prostate = test system: DU-145 prostate
EKVX NSCLC = test system: EKVX NSCLC
HCC-2998 colon = test system: HCC-2998 colon
HCT-116 colon = test system: HCT-116 colon
HCT-15 colon = test system: HCT-15 colon
HL-60(TB) leukemia = test system: HL-60(TB) leukemia
HOP-62 NSCLC = test system: HOP-62 NSCLC
HOP-92 NSCLC = test system: HOP-92 NSCLC
HS 578T breast = test system: HS 578T breast
HT29 colon = test system: HT29 colon
IGROV1 ovarian = test system: IGROV1 ovarian
K-562 leukemia = test system: K-562 leukemia
KM12 colon = test system: KM12 colon
LOX IMVI melanoma = test system: LOX IMVI melanoma
M14 melanoma = test system: M14 melanoma
MALME-3M melanoma = test system: MALME-3M melanoma
MCF7 breast = test system: MCF7 breast
MDA-MB-231 breast = test system: MDA-MB-231 breast
MDA-MB-435 = test system: MDA-MB-435
MOLT-4 leukemia = test system: MOLT-4 leukemia
NCI-H226 lung = test system: NCI-H226 lung
NCI-H23 lung = test system: NCI-H23 lung
NCI-H460 lung = test system: NCI-H460 lung
NCI-H522 lung = test system: NCI-H522 lung
NCI/ADR-RES ovarian = test system: NCI/ADR-RES ovarian
OVCAR-3 ovarian = test system: OVCAR-3 ovarian
OVCAR-4 ovarian = test system: OVCAR-4 ovarian
OVCAR-5 ovarian = test system: OVCAR-5 ovarian
OVCAR-8 ovarian = test system: OVCAR-8 ovarian
PC-3 prostate = test system: PC-3 prostate
RPMI-8226 leukemia = test system: RPMI-8226 leukemia
SF-268 CNS = test system: SF-268 CNS
SF-295 CNS = test system: SF-295 CNS
SF-539 CNS = test system: SF-539 CNS
SK-MEL-2 melanoma = test system: SK-MEL-2 melanoma
SK-MEL-28 melanoma = test system: SK-MEL-28 melanoma
SK-MEL-5 melanoma = test system: SK-MEL-5 melanoma
SK-OV-3 ovarian = test system: SK-OV-3 ovarian
SN12C renal = test system: SN12C renal
SNB-19 CNS = test system: SNB-19 CNS
SR leukemia = test system: SR leukemia
SW-620 colon = test system: SW-620 colon
TK-10 renal = test system: TK-10 renal
U251 CNS = test system: U251 CNS
UACC-62 melanoma = test system: UACC-62 melanoma
UO-31 renal = test system: UO-31 renal

For `COC(=O)[C@@H](C)C[C@H](Cc1ccccc1)NC(=O)c1csc([C@@H](C[C@H](C(C)C)N(C)C(=O)[C@@H](NC(=O)[C@H]2CCCCN2C)C(C(F)(F)F)C(F)(F)F)OC(C)=O)n1`, the GI50 (786-0 renal) was 53.5 nM, the TGI (786-0 renal) was 3530 nM and the GI50 (A498 renal) was 82.9 nM. For the same compound, the TGI (A498 renal) was over 16700 nM, the GI50 (A549 NSCLC) was 114 nM and the TGI (A549 NSCLC) was over 16700 nM. The GI50 (ACHN renal) was 111 nM, the TGI (ACHN renal) was over 16700 nM and the GI50 (BT-549 breast) was 54 nM. For the same compound, the TGI (BT-549 breast) was 779 nM, the GI50 (CCRF-CEM leukemia) was 53.9 nM and the TGI (CCRF-CEM leukemia) was 9050 nM. For the same compound, the GI50 (COLO 205 colon) was 65.8 nM, the TGI (COLO 205 colon) was 556 nM and the GI50 (DU-145 prostate) was 47 nM. For the same compound, the TGI (DU-145 prostate) was over 16700 nM, the GI50 (EKVX NSCLC) was 102 nM and the TGI (EKVX NSCLC) was over 16700 nM. For the same compound, the GI50 (HCC-2998 colon) was 74.7 nM, the TGI (HCC-2998 colon) was over 16700 nM and the GI50 (HCT-116 colon) was 57 nM. For the same compound, the TGI (HCT-116 colon) was over 16700 nM, the GI50 (HCT-15 colon) was 64.5 nM and the TGI (HCT-15 colon) was over 16700 nM. It also gave a GI50 (HL-60(TB) leukemia) of 13.4 nM, a TGI (HL-60(TB) leukemia) of 115 nM and a GI50 (HOP-62 NSCLC) of 65.1 nM. For the same compound, the TGI (HOP-62 NSCLC) was over 16700 nM, the GI50 (HOP-92 NSCLC) was 18.5 nM and the TGI (HOP-92 NSCLC) was 1040 nM. The GI50 (HS 578T breast) was 47 nM, the TGI (HS 578T breast) was 15400 nM and the GI50 (HT29 colon) was 49.5 nM. The TGI (HT29 colon) was 256 nM, the GI50 (IGROV1 ovarian) was 66.6 nM and the TGI (IGROV1 ovarian) was over 16700 nM. The GI50 (K-562 leukemia) was 12.4 nM, the TGI (K-562 leukemia) was over 16700 nM and the GI50 (KM12 colon) was 44.8 nM. The TGI (KM12 colon) was 13900 nM, the GI50 (LOX IMVI melanoma) was 53 nM and the TGI (LOX IMVI melanoma) was over 16700 nM. For the same compound, the GI50 (M14 melanoma) was 33.3 nM, the TGI (M14 melanoma) was 115 nM and the GI50 (MALME-3M melanoma) was 43.7 nM. For the same compound, the TGI (MALME-3M melanoma) was over 16700 nM, the GI50 (MCF7 breast) was 11.8 nM and the TGI (MCF7 breast) was over 16700 nM. It also gave a GI50 (MDA-MB-231 breast) of 73.4 nM, a TGI (MDA-MB-231 breast) of 3060 nM and a GI50 (MDA-MB-435) of 4.37 nM. It also gave a TGI (MDA-MB-435) of 21.9 nM, a GI50 (MOLT-4 leukemia) of 63.1 nM and a TGI (MOLT-4 leukemia) of over 16700 nM. The GI50 (NCI-H226 lung) was 3940 nM, the TGI (NCI-H226 lung) was over 16700 nM and the GI50 (NCI-H23 lung) was 62.4 nM. It also gave a TGI (NCI-H23 lung) of over 16700 nM, a GI50 (NCI-H460 lung) of 57.6 nM and a TGI (NCI-H460 lung) of over 16700 nM. The GI50 (NCI-H522 lung) was 12.5 nM, the TGI (NCI-H522 lung) was 264 nM and the GI50 (NCI/ADR-RES ovarian) was 346 nM. The TGI (NCI/ADR-RES ovarian) was over 16700 nM, the GI50 (OVCAR-3 ovarian) was 21 nM and the TGI (OVCAR-3 ovarian) was 253 nM. The GI50 (OVCAR-4 ovarian) was 309 nM, the TGI (OVCAR-4 ovarian) was over 16700 nM and the GI50 (OVCAR-5 ovarian) was 64.3 nM. For the same compound, the TGI (OVCAR-5 ovarian) was over 16700 nM, the GI50 (OVCAR-8 ovarian) was 92.7 nM and the TGI (OVCAR-8 ovarian) was over 16700 nM. For the same compound, the GI50 (PC-3 prostate) was 45.2 nM, the TGI (PC-3 prostate) was 3870 nM and the GI50 (RPMI-8226 leukemia) was 59 nM. For the same compound, the TGI (RPMI-8226 leukemia) was 3220 nM, the GI50 (SF-268 CNS) was 108 nM and the TGI (SF-268 CNS) was over 16700 nM. It also gave a GI50 (SF-295 CNS) of 36.8 nM, a TGI (SF-295 CNS) of over 16700 nM and a GI50 (SF-539 CNS) of 39.7 nM. The TGI (SF-539 CNS) was 154 nM, the GI50 (SK-MEL-2 melanoma) was 77.7 nM and the TGI (SK-MEL-2 melanoma) was over 16700 nM. The GI50 (SK-MEL-28 melanoma) was 102 nM, the TGI (SK-MEL-28 melanoma) was over 16700 nM and the GI50 (SK-MEL-5 melanoma) was 27.5 nM. The TGI (SK-MEL-5 melanoma) was 1810 nM, the GI50 (SK-OV-3 ovarian) was 70 nM and the TGI (SK-OV-3 ovarian) was over 16700 nM. For the same compound, the GI50 (SN12C renal) was 106 nM, the TGI (SN12C renal) was over 16700 nM and the GI50 (SNB-19 CNS) was 65.8 nM. For the same compound, the TGI (SNB-19 CNS) was over 16700 nM, the GI50 (SR leukemia) was 7.43 nM and the TGI (SR leukemia) was over 16700 nM. It also gave a GI50 (SW-620 colon) of 67.3 nM, a TGI (SW-620 colon) of over 16700 nM and a GI50 (TK-10 renal) of 4600 nM. The TGI (TK-10 renal) was over 16700 nM, the GI50 (U251 CNS) was 65.5 nM and the TGI (U251 CNS) was over 16700 nM. It also gave a GI50 (UACC-62 melanoma) of 15.4 nM, a TGI (UACC-62 melanoma) of over 16700 nM and a GI50 (UO-31 renal) of 224 nM. It also gave a TGI (UO-31 renal) of over 16700 nM.
